Like-named read-outs stand apart in the source and are kept apart here.
Legend:
Assay in all cases: biochemical
Design in all cases: Eurofins KinaseProfiler full panel at Km ATP, residual kinase activity (%) relative to DMSO
PI3KC2a(h) = molecular target: T1, PI3KC2a(h) (Homo sapiens, UniProt O00443)
T1 construct: gene PIK3C2A
In short: (§1)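 Radiometric kinase activity assays were run with ATP at Km and compounds at 10 µM, and remaining activity (%) was reported. A separate competitive binding screen measured DNA-tagged kinase displaced from immobilized active-site ligands by qPCR, giving percent kinase still bound at 10 µM compound in DMSO.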

MYLK2(h) = MYLK2(h) (Homo sapiens, UniProt Q9H1R3)
In short: as §1

WNK3(h) = WNK3(h) (Homo sapiens, UniProt Q9BYP7)
In short: as §1

cKit(V654A)(h) = molecular target: T2, cKit(V654A)(h) (Homo sapiens, UniProt P10721, V654A)
T2 construct: gene KIT
In short: as §1

[1] = molecular target: T3, PI3 Kinase (p110a(E545K)/p85a)(h) (Homo sapiens, UniProt P42336, E545K)
T3 construct: gene PIK3CA
In short: as §1

Lyn(h) = Lyn(h) (Homo sapiens, UniProt P07948)
In short: as §1

ErbB2(h) = ErbB2(h) (Homo sapiens, UniProt P04626)
In short: as §1

NEK4 = NEK4 (Homo sapiens, UniProt P51957)
In short: as §1

TAO3(h) = molecular target: T4, TAO3(h) (Homo sapiens, UniProt Q9H2K8)
T4 construct: gene TAOK3
T4 sequence (Q9H2K8 1-898): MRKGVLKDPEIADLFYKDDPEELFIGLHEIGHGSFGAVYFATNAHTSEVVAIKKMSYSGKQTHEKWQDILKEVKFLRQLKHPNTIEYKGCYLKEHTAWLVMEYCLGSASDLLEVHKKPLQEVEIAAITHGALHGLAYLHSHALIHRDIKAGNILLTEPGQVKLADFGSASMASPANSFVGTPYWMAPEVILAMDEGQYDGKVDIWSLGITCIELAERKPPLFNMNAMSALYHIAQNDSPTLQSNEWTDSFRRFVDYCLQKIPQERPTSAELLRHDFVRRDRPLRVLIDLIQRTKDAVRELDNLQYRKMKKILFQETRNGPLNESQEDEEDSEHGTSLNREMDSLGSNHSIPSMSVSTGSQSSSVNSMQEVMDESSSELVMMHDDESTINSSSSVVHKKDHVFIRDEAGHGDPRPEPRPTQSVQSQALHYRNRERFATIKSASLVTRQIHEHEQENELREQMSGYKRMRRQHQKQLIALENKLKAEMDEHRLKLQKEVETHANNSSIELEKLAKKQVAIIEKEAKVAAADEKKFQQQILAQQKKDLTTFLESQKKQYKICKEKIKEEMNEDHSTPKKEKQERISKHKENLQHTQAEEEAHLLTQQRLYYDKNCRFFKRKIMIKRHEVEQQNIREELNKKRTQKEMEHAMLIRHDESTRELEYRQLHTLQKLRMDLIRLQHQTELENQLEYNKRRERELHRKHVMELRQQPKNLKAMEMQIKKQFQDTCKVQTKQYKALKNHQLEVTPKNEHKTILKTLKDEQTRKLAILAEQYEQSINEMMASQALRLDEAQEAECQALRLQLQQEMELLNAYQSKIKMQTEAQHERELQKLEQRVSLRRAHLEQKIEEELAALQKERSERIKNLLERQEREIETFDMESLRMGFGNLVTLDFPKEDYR
In short: as §1

[2] = read-out: Residual activity (%) 5ay
[3] = read-out: Residual activity (%) Spautin-1 5aa
[4] = read-out: Residual activity (%) 5at
[5] = read-out: Residual activity (%) 5as

Sequence of MYLK2(h) (Q9H1R3 whole entry): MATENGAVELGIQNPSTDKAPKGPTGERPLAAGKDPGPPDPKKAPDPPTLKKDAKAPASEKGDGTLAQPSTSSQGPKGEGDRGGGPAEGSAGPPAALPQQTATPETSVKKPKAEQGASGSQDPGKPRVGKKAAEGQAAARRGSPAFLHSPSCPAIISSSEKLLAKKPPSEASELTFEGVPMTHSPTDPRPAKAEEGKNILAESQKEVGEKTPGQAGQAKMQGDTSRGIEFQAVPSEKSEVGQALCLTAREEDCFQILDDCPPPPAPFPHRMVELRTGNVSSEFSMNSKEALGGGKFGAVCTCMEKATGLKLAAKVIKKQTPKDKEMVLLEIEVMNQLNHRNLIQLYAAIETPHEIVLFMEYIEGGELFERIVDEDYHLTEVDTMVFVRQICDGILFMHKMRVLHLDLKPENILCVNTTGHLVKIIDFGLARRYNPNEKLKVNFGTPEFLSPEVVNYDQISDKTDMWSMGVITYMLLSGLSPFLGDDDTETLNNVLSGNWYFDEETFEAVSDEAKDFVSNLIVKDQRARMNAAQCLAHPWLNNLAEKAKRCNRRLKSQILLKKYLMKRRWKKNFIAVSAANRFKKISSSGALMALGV
Sequence of Lyn(h) (P07948 whole entry): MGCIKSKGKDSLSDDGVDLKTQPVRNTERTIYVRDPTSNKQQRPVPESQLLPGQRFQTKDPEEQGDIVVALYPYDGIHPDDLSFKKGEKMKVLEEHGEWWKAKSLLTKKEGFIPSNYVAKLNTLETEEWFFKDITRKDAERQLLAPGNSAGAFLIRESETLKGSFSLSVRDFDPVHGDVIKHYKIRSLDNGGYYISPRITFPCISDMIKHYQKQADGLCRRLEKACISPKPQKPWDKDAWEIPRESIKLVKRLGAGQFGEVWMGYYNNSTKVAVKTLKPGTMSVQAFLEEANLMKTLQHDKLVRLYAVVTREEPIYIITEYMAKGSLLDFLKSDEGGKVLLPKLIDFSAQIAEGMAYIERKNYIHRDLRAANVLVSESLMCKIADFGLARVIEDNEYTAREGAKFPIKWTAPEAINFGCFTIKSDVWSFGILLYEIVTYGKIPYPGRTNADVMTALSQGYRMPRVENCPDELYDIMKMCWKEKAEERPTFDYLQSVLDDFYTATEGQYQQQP
T3 sequence (P42336 whole entry E545K): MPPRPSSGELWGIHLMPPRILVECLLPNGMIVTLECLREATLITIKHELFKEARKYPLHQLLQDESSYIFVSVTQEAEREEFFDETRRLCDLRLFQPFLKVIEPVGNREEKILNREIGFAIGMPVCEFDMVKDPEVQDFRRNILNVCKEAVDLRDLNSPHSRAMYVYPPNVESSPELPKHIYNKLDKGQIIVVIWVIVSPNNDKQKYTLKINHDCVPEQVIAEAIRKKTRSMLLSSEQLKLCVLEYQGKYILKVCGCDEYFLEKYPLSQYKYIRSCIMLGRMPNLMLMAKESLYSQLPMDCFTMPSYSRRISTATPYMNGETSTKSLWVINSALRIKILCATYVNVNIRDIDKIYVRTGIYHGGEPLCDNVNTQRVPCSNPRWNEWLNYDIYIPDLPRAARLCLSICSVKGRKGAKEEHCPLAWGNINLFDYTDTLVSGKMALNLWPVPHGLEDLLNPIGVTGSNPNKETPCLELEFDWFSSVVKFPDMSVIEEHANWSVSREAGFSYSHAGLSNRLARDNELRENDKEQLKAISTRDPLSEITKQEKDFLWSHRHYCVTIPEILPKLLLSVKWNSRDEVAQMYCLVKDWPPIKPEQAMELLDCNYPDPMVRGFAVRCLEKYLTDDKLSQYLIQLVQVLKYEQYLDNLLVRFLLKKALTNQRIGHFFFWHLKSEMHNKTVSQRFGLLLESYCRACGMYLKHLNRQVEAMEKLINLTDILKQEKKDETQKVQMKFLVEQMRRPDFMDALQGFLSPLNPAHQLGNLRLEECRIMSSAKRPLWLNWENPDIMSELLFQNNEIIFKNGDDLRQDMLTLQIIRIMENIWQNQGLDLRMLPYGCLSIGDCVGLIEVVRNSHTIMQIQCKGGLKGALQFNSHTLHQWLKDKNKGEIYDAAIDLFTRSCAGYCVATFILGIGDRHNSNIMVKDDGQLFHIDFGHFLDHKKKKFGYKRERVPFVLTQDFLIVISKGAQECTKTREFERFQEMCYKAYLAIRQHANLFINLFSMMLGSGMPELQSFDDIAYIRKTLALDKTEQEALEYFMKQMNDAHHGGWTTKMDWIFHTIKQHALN
T3 sequence (P27986 whole entry partner): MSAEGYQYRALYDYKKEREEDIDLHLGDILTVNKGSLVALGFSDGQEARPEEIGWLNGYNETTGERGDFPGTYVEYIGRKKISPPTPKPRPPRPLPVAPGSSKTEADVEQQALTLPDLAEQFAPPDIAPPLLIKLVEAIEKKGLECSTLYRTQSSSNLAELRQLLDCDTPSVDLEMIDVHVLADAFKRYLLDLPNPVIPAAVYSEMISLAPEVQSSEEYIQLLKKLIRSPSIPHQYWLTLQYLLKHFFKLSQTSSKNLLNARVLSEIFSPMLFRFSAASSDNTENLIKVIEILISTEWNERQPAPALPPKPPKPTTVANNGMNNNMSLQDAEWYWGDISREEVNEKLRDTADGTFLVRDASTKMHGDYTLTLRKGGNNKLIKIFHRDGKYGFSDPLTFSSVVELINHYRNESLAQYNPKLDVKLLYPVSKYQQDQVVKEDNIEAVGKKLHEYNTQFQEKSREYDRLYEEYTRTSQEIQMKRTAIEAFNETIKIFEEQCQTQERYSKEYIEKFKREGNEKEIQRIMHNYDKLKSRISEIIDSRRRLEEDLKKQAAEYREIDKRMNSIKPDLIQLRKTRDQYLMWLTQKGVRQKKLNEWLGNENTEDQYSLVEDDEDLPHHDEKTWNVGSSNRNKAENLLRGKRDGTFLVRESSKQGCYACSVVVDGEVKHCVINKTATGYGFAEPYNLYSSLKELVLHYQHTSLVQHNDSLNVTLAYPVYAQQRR
Sequence of NEK4 (P51957 whole entry): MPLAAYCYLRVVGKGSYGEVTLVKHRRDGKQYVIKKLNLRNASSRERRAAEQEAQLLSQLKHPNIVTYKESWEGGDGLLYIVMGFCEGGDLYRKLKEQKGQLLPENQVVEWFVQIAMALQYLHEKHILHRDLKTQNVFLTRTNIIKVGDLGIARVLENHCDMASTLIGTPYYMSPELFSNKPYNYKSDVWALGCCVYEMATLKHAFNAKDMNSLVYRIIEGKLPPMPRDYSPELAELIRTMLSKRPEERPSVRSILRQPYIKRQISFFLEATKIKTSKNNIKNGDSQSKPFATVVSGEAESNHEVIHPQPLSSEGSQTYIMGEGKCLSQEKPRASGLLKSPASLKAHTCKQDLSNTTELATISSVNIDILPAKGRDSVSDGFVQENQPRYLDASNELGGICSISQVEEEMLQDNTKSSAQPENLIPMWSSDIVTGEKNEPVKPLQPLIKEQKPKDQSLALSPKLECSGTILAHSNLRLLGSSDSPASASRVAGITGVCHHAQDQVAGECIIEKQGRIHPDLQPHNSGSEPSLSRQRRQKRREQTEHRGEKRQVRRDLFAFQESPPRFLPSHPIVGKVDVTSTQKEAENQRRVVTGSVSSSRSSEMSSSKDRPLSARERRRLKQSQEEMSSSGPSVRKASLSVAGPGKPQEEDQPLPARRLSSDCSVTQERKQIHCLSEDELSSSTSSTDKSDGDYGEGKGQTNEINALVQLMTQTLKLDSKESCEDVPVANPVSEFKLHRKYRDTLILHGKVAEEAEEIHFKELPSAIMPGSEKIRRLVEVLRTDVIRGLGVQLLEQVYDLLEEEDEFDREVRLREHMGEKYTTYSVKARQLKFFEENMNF
Sequence of ErbB2(h) (P04626 whole entry): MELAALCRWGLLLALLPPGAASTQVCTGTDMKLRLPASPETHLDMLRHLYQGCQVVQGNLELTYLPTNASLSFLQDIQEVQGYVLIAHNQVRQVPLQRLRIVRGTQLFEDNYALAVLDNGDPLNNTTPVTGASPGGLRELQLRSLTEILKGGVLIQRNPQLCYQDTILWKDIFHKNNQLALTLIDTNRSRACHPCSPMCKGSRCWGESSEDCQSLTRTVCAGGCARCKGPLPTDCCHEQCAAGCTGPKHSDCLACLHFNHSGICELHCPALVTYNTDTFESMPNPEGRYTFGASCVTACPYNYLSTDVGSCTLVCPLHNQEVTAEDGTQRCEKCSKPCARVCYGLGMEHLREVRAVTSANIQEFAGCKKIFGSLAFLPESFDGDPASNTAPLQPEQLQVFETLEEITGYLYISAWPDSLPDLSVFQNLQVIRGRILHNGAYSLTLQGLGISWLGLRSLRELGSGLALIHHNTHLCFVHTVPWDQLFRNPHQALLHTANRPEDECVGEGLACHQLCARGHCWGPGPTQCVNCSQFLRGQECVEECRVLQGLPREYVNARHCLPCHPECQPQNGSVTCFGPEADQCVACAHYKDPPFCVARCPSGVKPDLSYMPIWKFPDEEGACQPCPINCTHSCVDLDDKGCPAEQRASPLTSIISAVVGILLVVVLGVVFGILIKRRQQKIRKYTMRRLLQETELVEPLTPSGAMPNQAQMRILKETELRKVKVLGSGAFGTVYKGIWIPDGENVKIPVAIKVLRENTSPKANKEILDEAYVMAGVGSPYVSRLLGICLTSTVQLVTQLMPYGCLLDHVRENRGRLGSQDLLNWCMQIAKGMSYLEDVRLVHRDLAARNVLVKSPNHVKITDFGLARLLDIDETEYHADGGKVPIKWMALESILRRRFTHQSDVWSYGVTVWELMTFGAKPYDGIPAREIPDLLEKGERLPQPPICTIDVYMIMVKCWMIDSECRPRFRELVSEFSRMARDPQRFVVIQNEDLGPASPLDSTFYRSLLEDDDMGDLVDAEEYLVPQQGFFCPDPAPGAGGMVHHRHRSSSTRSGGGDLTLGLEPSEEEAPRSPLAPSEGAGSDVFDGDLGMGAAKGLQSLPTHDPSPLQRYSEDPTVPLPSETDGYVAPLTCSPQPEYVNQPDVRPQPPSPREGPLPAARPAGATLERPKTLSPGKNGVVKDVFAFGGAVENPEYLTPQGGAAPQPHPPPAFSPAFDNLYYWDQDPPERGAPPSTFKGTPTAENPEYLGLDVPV

With `COc1ccc2ncnc(Nc3cccc(F)c3)c2c1` [5ay, N-(3-Fluorophenyl)-6-Methoxy-4-Quinazolinamine] the remaining activity at 10 µM (PI3KC2a(h); [2]) was 106%, the remaining activity at 10 µM (MYLK2(h); [2]) was 89% and the remaining activity at 10 µM (WNK3(h); [2]) was 104%. The remaining activity at 10 µM (cKit(V654A)(h); [2]) was 92%, the remaining activity at 10 µM [1, 2] was 81% and the remaining activity at 10 µM (Lyn(h); [2]) was 80%. It also gave a remaining activity at 10 µM (ErbB2(h); [2]) of 20%, a remaining activity at 10 µM (NEK4; [2]) of 30% and a remaining activity at 10 µM (TAO3(h); [2]) of 77%.

With `Fc1ccc(CNc2ncnc3ccc(F)cc23)cc1` [5aa, 6-Fluoro-N-(4-fluorobenzyl)-4-Quinazolinamine] the remaining activity at 10 µM (PI3KC2a(h); [3]) was 102%, the remaining activity at 10 µM (MYLK2(h); [3]) was 97% and the remaining activity at 10 µM (WNK3(h); [3]) was 90%. It also gave a remaining activity at 10 µM (cKit(V654A)(h); [3]) of 112%, a remaining activity at 10 µM [1, 3] of 96% and a remaining activity at 10 µM (Lyn(h); [3]) of 103%. The remaining activity at 10 µM (ErbB2(h); [3]) was 74%, the remaining activity at 10 µM (NEK4; [3]) was 71% and the remaining activity at 10 µM (TAO3(h); [3]) was 94%.

Molecule `Fc1ccc2ncnc(NCCc3ccc(Cl)cc3)c2c1` [5at, N-[2-(4-Chlorophenyl)Ethyl]-6-Fluoro-4-Quinazolinamine] has a remaining activity at 10 µM (PI3KC2a(h); [4]) of 105%, a remaining activity at 10 µM (MYLK2(h); [4]) of 93% and a remaining activity at 10 µM (WNK3(h); [4]) of 86%. For the same molecule, the remaining activity at 10 µM (cKit(V654A)(h); [4]) was 85%, the remaining activity at 10 µM [1, 4] was 91% and the remaining activity at 10 µM (Lyn(h); [4]) was 91%. The remaining activity at 10 µM (ErbB2(h); [4]) was 65%, the remaining activity at 10 µM (NEK4; [4]) was 12% and the remaining activity at 10 µM (TAO3(h); [4]) was 82%.

`Fc1ccc(CCNc2ncnc3ccc(F)cc23)cc1` [5as, 6-Fluoro-N-[2-(4-Fluorophenyl)Ethyl]-4-Quinazolinamine] was tested, and the remaining activity at 10 µM (PI3KC2a(h); [5]) was 100%, the remaining activity at 10 µM (MYLK2(h); [5]) was 80% and the remaining activity at 10 µM (WNK3(h); [5]) was 98%. For the same molecule, the remaining activity at 10 µM (cKit(V654A)(h); [5]) was 85%, the remaining activity at 10 µM [1, 5] was 93% and the remaining activity at 10 µM (Lyn(h); [5]) was 89%. For the same molecule, the remaining activity at 10 µM (ErbB2(h); [5]) was 79% and the remaining activity at 10 µM (TAO3(h); [5]) was 78%.
